{
  "source": "patent US9328099B2",
  "about": "“Cyanomethylpyrazole carboxamides as janus kinase inhibitors” (Merck Sharp & Dohme Corp., priority 2011, dated 2016)",
  "key": {"JAK1": {"target": "JAK1 (Homo sapiens (Human), UniProt P23458)", "sequence (P23458 875-1153)": "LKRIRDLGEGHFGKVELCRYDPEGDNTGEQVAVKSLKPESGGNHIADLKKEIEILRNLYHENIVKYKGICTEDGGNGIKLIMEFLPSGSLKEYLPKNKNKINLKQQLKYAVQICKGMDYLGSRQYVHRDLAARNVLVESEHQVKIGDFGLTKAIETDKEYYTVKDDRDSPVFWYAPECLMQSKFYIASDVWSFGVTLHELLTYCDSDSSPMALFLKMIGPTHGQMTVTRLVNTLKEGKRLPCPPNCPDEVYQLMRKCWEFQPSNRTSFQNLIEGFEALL", "assay": "Jak Biochemical HTRF Assay, JAK1", "source_text": "(§1) Jak Biochemical HTRF Assay Protocol\n(§2) Subsequent reagent additions employed an Agilent Bravo."}, "JAK2": {"target": "JAK2 (Homo sapiens (Human), UniProt O60674)", "sequence (O60674 849-1124)": "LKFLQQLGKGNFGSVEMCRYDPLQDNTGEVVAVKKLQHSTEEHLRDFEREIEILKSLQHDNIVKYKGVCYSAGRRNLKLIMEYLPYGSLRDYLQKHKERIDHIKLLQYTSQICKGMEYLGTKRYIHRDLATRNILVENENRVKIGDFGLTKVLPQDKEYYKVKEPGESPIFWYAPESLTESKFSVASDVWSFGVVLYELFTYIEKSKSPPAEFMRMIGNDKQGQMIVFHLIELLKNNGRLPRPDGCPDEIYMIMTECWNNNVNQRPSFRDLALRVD", "assay": "Jak Biochemical HTRF Assay, JAK2", "details": "HTRF biochemical assay, GST-tagged catalytic domain; top concentration tested […]", "source_text": "as §1, §2"}, "[1]": {"details": "HTRF biochemical assay, GST-tagged catalytic domain, top concentration tested […], read-out: JAK1 IC50"}},
  "note": "Read-outs that look alike come from different tables or passages of the source.",
  "data": [
    {"smiles": "N#CCC1(n2cc(C(N)=O)c(Nc3ccnc(F)c3)n2)CCN(Cc2cc3ccccn3n2)CC1", "note": "[Example 22-34, 1-[4-(cyanomethyl)-1-(pyrazolo[1,5-a]pyridin-2-ylmethyl)piperidin-4-yl]-3-[(2-fluoropyridin-4-yl)amino]-1H-pyrazole-4-carboxamide]", "values": [
      {"measurement": "IC50", "setting": "JAK1; [1]", "result": 8, "unit": "nM"},
      {"measurement": "IC50", "setting": "JAK2", "result": 163, "unit": "nM"}
    ]},
    {"smiles": "N#CCC1(n2cc(C(N)=O)c(Nc3ccnc(F)c3)n2)CCC(Nc2cccc(F)c2)CC1", "note": "(stereo not drawn) [Example 40-64, Cis or trans 1-{1-(cyanomethyl)-4-[(3-fluorophenyl)amino]cyclohexyl}-3-[(2-fluoropyridin-4-yl)amino]-1H-pyrazole-4-carboxamide]", "values": [
      {"measurement": "IC50", "setting": "JAK1; [1]", "result": 0.05, "unit": "nM"},
      {"measurement": "IC50", "setting": "JAK2", "result": 2, "unit": "nM"}
    ]},
    {"smiles": "N#CCC1(n2cc(C(N)=O)c(Nc3cncc(F)c3)n2)CCN(C(=O)OCC(F)(F)F)CC1", "note": "[Example 10-8, 2,2,2-trifluoroethyl 4-(4-carbamoyl-3-(5-fluoropyridin-3-ylamino)-1H-pyrazol-1-yl)-4-(cyanomethyl)piperidine-1-carboxylate]", "values": [
      {"measurement": "IC50", "setting": "JAK1; [1]", "result": 0.7, "unit": "nM"},
      {"measurement": "IC50", "setting": "JAK2", "result": 21, "unit": "nM"}
    ]},
    {"smiles": "N#CCC1(n2cc(C(N)=O)c(Nc3ccc(S(=O)(=O)C(F)F)cc3)n2)CCC(NCC(F)(F)F)CC1", "note": "(stereo not drawn) [Example 40-89, Cis or trans 1-{1-(cyanomethyl)-4-[(2,2,2-trifluoroethyl)amino]cyclohexyl}-3-({4-[(difluoromethyl)sulfonyl]phenyl}amino)-1H-pyrazole-4-carboxamide]", "values": [
      {"measurement": "IC50", "setting": "JAK1; [1]", "result": 13, "unit": "nM"},
      {"measurement": "IC50", "setting": "JAK2", "result": 466, "unit": "nM"}
    ]},
    {"smiles": "N#CCC1(n2cc(C(N)=O)c(Nc3ccnc(F)c3)n2)CCC(NCc2ccccc2)CC1", "note": "(stereo not drawn) [Example 41-28, Cis or trans 1-[4-(benzylamino)-1-(cyanomethyl)cyclohexyl]-3-[(2-fluoropyridin-4-yl)amino]-1H-pyrazole-4-carboxamide]", "values": [
      {"measurement": "IC50", "setting": "JAK1; [1]", "result": 20, "unit": "nM"},
      {"measurement": "IC50", "setting": "JAK2", "result": 735, "unit": "nM"}
    ]},
    {"smiles": "N#CCC1(n2cc(C(N)=O)c(Nc3ccc(F)cc3)n2)CCN(Cc2ccc3[nH]ccc3c2)CC1", "note": "[Example 22-55, 1-[4-(cyanomethyl)-1-(1H-indol-5-ylmethyl)piperidin-4-yl]-3-[(4-fluorophenyl)amino]-1H-pyrazole-4-carboxamide]", "values": [
      {"measurement": "IC50", "setting": "JAK1; [1]", "result": 4, "unit": "nM"},
      {"measurement": "IC50", "setting": "JAK2", "result": 53, "unit": "nM"}
    ]},
    {"smiles": "CCn1ccnc1CN1CCC(CC#N)(n2cc(C(N)=O)c(Nc3ccnc(F)c3)n2)CC1", "note": "[Example 22-1, 1-(4-(Cyanomethyl)-1-((1-ethyl-1H-imidazol-2-yl)methyl)piperidin-4-yl)-3-((2-fluoropyridin-4-yl)amino)-1H-pyrazole-4-carboxamide]", "values": [
      {"measurement": "IC50", "setting": "JAK1; [1]", "result": 30, "unit": "nM"},
      {"measurement": "IC50", "setting": "JAK2", "result": 447, "unit": "nM"}
    ]},
    {"smiles": "CC(C)(C)OC(=O)N1CCC(CC#N)(n2cc(C(N)=O)c(Nc3ccc(N4CCOCC4)nc3)n2)CC1", "note": "[Example 12-4, tert-butyl 4-(4-carbamoyl-3-{[6-(morpholin-4-yl)aphthal-3-yl]amino}-1H-pyrazol-1-yl)-4-(cyanomethyl)piperidine-1-carboxylate]", "values": [
      {"measurement": "IC50", "setting": "JAK1; [1]", "result": 0.8, "unit": "nM"},
      {"measurement": "IC50", "setting": "JAK2", "result": 3, "unit": "nM"}
    ]},
    {"smiles": "N#CCC1(n2cc(C(N)=O)c(Nc3ccnc(F)c3)n2)CCC(NCC(F)F)CC1", "note": "(stereo not drawn) [Example 40-106, Cis or trans 1-{1-(cyanomethyl)-4-[(2,2-difluoroethyl)amino]cyclohexyl}-3-[(2-fluoropyridin-4-yl)amino]-1H-pyrazole-4-carboxamide]", "values": [
      {"measurement": "IC50", "setting": "JAK1; JAK1 IC50", "result": 4, "unit": "nM"},
      {"measurement": "IC50", "setting": "JAK2", "result": 31, "unit": "nM"}
    ]},
    {"smiles": "N#CCC1(n2cc(C(N)=O)c(Nc3ccc(F)cc3)n2)CCC2(CC1)OCCO2", "note": "[Example 6-6, 1-[8-(cyanomethyl)-1,4-dioxaspiro[4.5]dec-8-yl]-3-[(4-fluorophenyl)amino]-1H-pyrazole-4-carboxamide]", "values": [
      {"measurement": "IC50", "setting": "JAK1; [1]", "result": 7, "unit": "nM"},
      {"measurement": "IC50", "setting": "JAK2", "result": 48, "unit": "nM"}
    ]},
    {"smiles": "N#CCC1(n2cc(C(N)=O)c(Nc3ccnc(F)c3)n2)CCC(NCc2cccnc2)CC1", "note": "(stereo not drawn) [Example 41-22, Cis or trans 1-{1-(cyanomethyl)-4-[(pyridin-3-ylmethyl)amino]cyclohexyl}-3-[(2-fluoropyridin-4-yl)amino]-1H-pyrazole-4-carboxamide]", "values": [
      {"measurement": "IC50", "setting": "JAK1; [1]", "result": 28, "unit": "nM"},
      {"measurement": "IC50", "setting": "JAK2", "result": 1050, "unit": "nM"}
    ]},
    {"smiles": "CC(O)c1ccc(Nc2nn(C3(CC#N)CCN(C(=O)OC(C)(C)C)CC3)cc2C(N)=O)cc1", "note": "(stereo not drawn) [Example 9-9, tert-butyl 4-(4-carbamoyl-3-(4-(1-hydroxyethyl)phenylamino)-1H-pyrazol-1-yl)-4-(cyanomethyl)piperidine-1-carboxylate]", "values": [
      {"measurement": "IC50", "setting": "JAK1; [1]", "result": 0.4, "unit": "nM"},
      {"measurement": "IC50", "setting": "JAK2", "result": 6, "unit": "nM"}
    ]},
    {"smiles": "Cn1nccc1CN1CCC(CC#N)(n2cc(C(N)=O)c(Nc3ccnc(F)c3)n2)CC1", "note": "[Example 22-29, 1-{4-(cyanomethyl)-1-[(1-methyl-1H-pyrazol-5-yl)methyl]piperidin-4-yl}-3-[(2-fluoropyridin-4-yl)amino]-1H-pyrazole-4-carboxamide]", "values": [
      {"measurement": "IC50", "setting": "JAK1; [1]", "result": 2, "unit": "nM"},
      {"measurement": "IC50", "setting": "JAK2", "result": 37, "unit": "nM"}
    ]},
    {"smiles": "CC(C)(C)OC(=O)N1CCC(CC#N)(n2cc(C(N)=O)c(Nc3cncc(Cl)c3)n2)CC1", "note": "[Example 9-36, tert-butyl 4-{4-carbamoyl-3-[(5-chloropyridin-3-yl)amino]-1H-pyrazol-1-yl}-4-(cyanomethyl)piperidine-1-carboxylate]", "values": [
      {"measurement": "IC50", "setting": "JAK1; [1]", "result": 0.9, "unit": "nM"},
      {"measurement": "IC50", "setting": "JAK2", "result": 21, "unit": "nM"}
    ]},
    {"smiles": "N#CCC1(n2cc(C(N)=O)c(Nc3ccc(F)cc3)n2)CCN(C(=O)OCC(F)(F)CO)CC1", "note": "[Example 30-11, 2,2-difluoro-3-hydroxypropyl 4-(4-carbamoyl-3-(4-fluorophenylamino)-1H-pyrazol-1-yl)-4-(cyanomethyl)piperidine-1-carboxylate]", "values": [
      {"measurement": "IC50", "setting": "JAK1; [1]", "result": 0.2, "unit": "nM"},
      {"measurement": "IC50", "setting": "JAK2", "result": 11, "unit": "nM"}
    ]},
    {"smiles": "COc1cccc(CN2CCC(CC#N)(n3cc(C(N)=O)c(Nc4ccnc(F)c4)n3)CC2)c1", "note": "[Example 22-63, 1-[4-(cyanomethyl)-1-(3-methoxybenzyl)piperidin-4-yl]-3-[(2-fluoropyridin-4-yl)amino]-1H-pyrazole-4-carboxamide]", "values": [
      {"measurement": "IC50", "setting": "JAK1; [1]", "result": 0.5, "unit": "nM"},
      {"measurement": "IC50", "setting": "JAK2", "result": 20, "unit": "nM"}
    ]},
    {"smiles": "N#CCC1(n2cc(C(N)=O)c(Nc3ccccc3)n2)CCN(C(=O)c2cc3ccccc3[nH]2)CC1", "note": "[Example 34-22, 1-[4-(cyanomethyl)-1-(1H-indol-2-ylcarbonyl)piperidin-4-yl]-3-(phenylamino)-1H-pyrazole-4-carboxamide]", "values": [
      {"measurement": "IC50", "setting": "JAK1; [1]", "result": 6, "unit": "nM"},
      {"measurement": "IC50", "setting": "JAK2", "result": 176, "unit": "nM"}
    ]},
    {"smiles": "N#CCC1(n2cc(C(N)=O)c(Nc3ccc(F)cc3)n2)CCN(c2cccc(OCCO)n2)CC1", "note": "[Example 3-10, 1-{4-(cyanomethyl)-1-[6-(2-hydroxyethoxy)pyridin-2-yl]piperidin-4-yl}-3-[(4-fluorophenyl)amino]-1H-pyrazole-4-carboxamide]", "values": [
      {"measurement": "IC50", "setting": "JAK1; [1]", "result": 3, "unit": "nM"},
      {"measurement": "IC50", "setting": "JAK2", "result": 47, "unit": "nM"}
    ]},
    {"smiles": "N#CCC1(n2cc(C(N)=O)c(Nc3ccccc3)n2)CCN(C(=O)c2ccncc2)CC1", "note": "[Example 34-10, 1-[4-(cyanomethyl)-1-(pyridin-4-ylcarbonyl)piperidin-4-yl]-3-(phenylamino)-1H-pyrazole-4-carboxamide]", "values": [
      {"measurement": "IC50", "setting": "JAK1; [1]", "result": 20, "unit": "nM"},
      {"measurement": "IC50", "setting": "JAK2", "result": 318, "unit": "nM"}
    ]},
    {"smiles": "N#CCC1(n2cc(C(N)=O)c(Nc3ccccc3)n2)CCCCC1", "note": "[Example 2-15, 1-[1-(cyanomethyl)cyclohexyl]-3-(phenylamino)-1H-pyrazole-4-carboxamide]", "values": [
      {"measurement": "IC50", "setting": "JAK1; [1]", "result": 10, "unit": "nM"},
      {"measurement": "IC50", "setting": "JAK2", "result": 92, "unit": "nM"}
    ]},
    {"smiles": "N#CCC1(n2cc(C(N)=O)c(Nc3ccnc(F)c3)n2)CCC(NCc2ccc(Cl)cc2)CC1", "note": "(stereo not drawn) [Example 41-9, Cis or trans 1-{4-[(4-chlorobenzyl)amino]-1-(cyanomethyl)cyclohexyl}-3-[(2-fluoropyridin-4-yl)amino]-1H-pyrazole-4-carboxamide]", "values": [
      {"measurement": "IC50", "setting": "JAK1; [1]", "result": 15, "unit": "nM"},
      {"measurement": "IC50", "setting": "JAK2", "result": 440, "unit": "nM"}
    ]}
  ]
}
